From patent US20220227761A1, “OXOACRIDINYL ACETIC ACID DERIVATIVES AND METHODS OF USE” (STINGTHERA, INC., priority 2019, published 2022)
“And” between values parts separate entries of the source, which are not always exact repeats. Equal values may be shown once.

How the values were obtained:
[1] = target: human STING protein (140-379), WT (Homo sapiens, UniProt Q86WV6, H232R); assay: Radiometric filtration binding competition assay (FBA), hSTING-WT; conditions: WT-hSWAT IC50 (μM), WT_FBA_HIS-SUMO-hSWAT; wild-type human STING; competition with [H3] 2′3′cGAMP
hSTING-R232 (aa140-379) = hSTING-R232 (aa140-379) (Homo sapiens, UniProt Q86WV6, H232R); assay: STING differential scanning fluorimetry (DSF) assay, hSTING WT; conditions: shift in melting temperature apo vs ligand-bound
Method: A STING DSF assay was performed to determine protein thermostability shift in response to small molecule ligand binding. A STING thermnostability shift assay based on differential scanning fluorimetry was used to measure (1) the net shift in melting temperature (ΔTm) between the apo and ligand-bound states of the STING protein and (2) the concentration of the thermal denaturation transition (EC50) as a surrogate measure of binding affinity (Kd). […] Protein in assay buffer was transferred to a 384 well plate and incubated with the hydrophobic fluorescent dye SYBR Orange. A temperature ramp was applied to the plate and the resulting dye fluorescence was plotted as a function of temperature. The first derivative of this function (dF/dT) was then used to extrapolate the melting temperature of the protein at various concentrations of compound and determine the thermal denaturation profile of a protein/compound complex.
5 μM purified Target STING Protein • 3. 8 μM Sypro Orange Dye • 4. Buffer: 100 mM NaCl, 30 mM HEPES, pH 7.5 • 5. Thermal Ramp: 0.5° C./min • 6. <1% DMSO • 7. 11 point, 2 fold dilution, duplicate, 300 μM high concentrations • 8.

[2] = test system: STING protein; IRF/IFN signaling in THP-1 R232 cells; assay: Cell based reporter assay, THP-1 R232 IRF-luc; conditions: Homo sapiens, THP1-dual-KI R232 cells, IRF luciferase reporter; for Emax: maximum measured activity, read-out: THP 1-dual-KI R232_IRF(Luciferase)_Activity Maximum measured (%); for IC50: read-out: THP 1-dual-KI R232_IRF(Luciferase) IC50
Text: Cell reporter assays were developed to measure the ability of compounds of the application to activate the STING protein and activate both IRF/IFN and the NFkB signaling pathways in the myeloid derived cell line THP-1, which is commercially available from several suppliers. Briefly, THP-1 monocytes were transfected and selected for stable integration of 2 reporter constructs. Clones incorporating stably integrated vectors were further selected by antibiotic resistance to blastocidin and zeocin. The reporter constructs included: (1) firefly luciferase reporter gene under the control of an ISG54 promoter fused to five interferon (IFN)-stimulated response elements to measure IRF transcription factor binding activity and (2) secreted embryonic alkaline phosphatase reporter gene under transcription control of an IFN-beta minimal promoter fused to 5 copies of the NFkB consensus transcriptional response element and 3 copies of the c-Rel binding site.
The resulting THP-1 cell line was further modified to incorporate 3 amino acid point mutations (H71R A230G Q293R). This modification of the native TMEM173 gene in THP-1 cells (HAQ) was designed to produce a cell reporter that expressed the most common allelic variant in the human population (THP-1 R232, available from InvivoGen). Alternatively, the TMEM173 gene was knocked out to provide a congenic control to counter-screen for compound activation that was independent of the STING protein (THP-1 STING KO).
Once cell lines were established, reporter assay protocols were developed and optimized to screen small molecule compounds for agonist activity. Assay optimization for efficacy and Z′ value included titration of the following parameters:
• 1. Cell pre-activation with PMA • 2. Cell seeding density • 3. DMSO tolerance • 4. Media selection • 5. FBS concentration • 6. Incubation time • 7. Co-Assessment of cell viability by CTG assay • 8. Appropriate HPE and ZPE controls • 9. Dose Response Titration
• 1. No pre-activation with PMA • 2. 5×10^4 cells/well in 96 well plate format • 3. <0.5% DMSO • 4. RPMI 1640+2.5 mg/ml glucose • 5. 10% FBS • 6. 14-18 hr incubation • 7. Cell Titer Glo reagent (Promega) following supernatant removal • 8. […] 8 point, 2 fold, duplicate starting at 150 μM

Sequence of hSTING-R232 (aa140-379) (Q86WV6 140-379 H232R): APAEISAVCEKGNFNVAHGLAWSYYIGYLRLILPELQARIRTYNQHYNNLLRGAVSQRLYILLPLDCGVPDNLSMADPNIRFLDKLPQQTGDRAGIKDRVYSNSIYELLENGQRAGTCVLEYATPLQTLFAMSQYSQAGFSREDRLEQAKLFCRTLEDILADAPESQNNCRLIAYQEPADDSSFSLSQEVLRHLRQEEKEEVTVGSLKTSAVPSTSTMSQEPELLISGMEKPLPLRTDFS
Sequence of human STING protein (140-379), WT (Q86WV6 140-379 H232R): as above

SMILES | IC50 [1] | WT_DSF_hSWAT Tm Shift (° C.) (hSTING-R232 (aa140-379)) | Emax [2] [%] | IC50 [2] [µM]
C=C(C)c1ccc2c(=O)c3ccc(Cl)c(N(C)C)c3n(CC(=O)O)c2c1 [Compound 24] | < 20 µM | D (“D” >7° C.) | > 50 | < 50
CN(C)c1c(Cl)ccc2c(=O)c3ccc(C4=CCN(C(=O)OC(C)(C)C)C4)cc3n(CC(=O)O)c12 [Compound 25] | < 20 µM | D (“D” >7° C.) | > 50 | < 50
CN(C)c1c(Cl)ccc2c(=O)c3cc(Br)ccc3n(CC(=O)O)c12 [Compound 29] | > 300 µM | B (“B” = 0-2° C.) | > 50 | < 50
CN(C)c1c(Cl)ccc2c(=O)c3cc(-c4ccccc4)ccc3n(CC(=O)O)c12 [Compound 30] | < 20 µM | D (“D” >7° C.) | 25 to 50 | < 50
Cc1ccc2c(c1)c(=O)c1ccc(Cl)c(N(C)C)c1n2CC(=O)O [Compound 31] | 100 to 300 µM and 20 to 100 µM | C (“C” = 2-7° C.) | > 50 | 50 to 100
Cc1cc2c(cc1Br)c(=O)c1ccc(Cl)c(N(C)C)c1n2CC(=O)O [Compound 34] | 20 to 100 µM | C (“C” = 2-7° C.) | 5 to 25 | < 50
CN(C)c1c(Cl)ccc2c(=O)c3ccc(C4CCC4)cc3n(CC(=O)O)c12 [Compound 35] | < 20 µM | D (“D” >7° C.) | > 50 | < 50
CN(C)c1c(Cl)ccc2c(=O)c3ccc(C4CC4)cc3n(CC(=O)O)c12 [Compound 36] | < 20 µM | D (“D” >7° C.) | > 50 | < 50
CCc1ccc2c(=O)c3ccc(Cl)c(N(C)C)c3n(CC(=O)O)c2c1 [Compound 37] | < 20 µM | D (“D” >7° C.) | > 50 | < 50
Cc1ccc2c(=O)c3ccc(C(C)(C)C)cc3n(CC(=O)O)c2c1N(C)C [Compound 39] | < 20 µM | D (“D” >7° C.) | > 50 | < 50
Cc1ccc2c(=O)c3ccc(Cl)c(C(C)C)c3n(CC(=O)O)c2c1 [Compound 46] | > 300 µM | D (“D” >7° C.) | 5 to 25 | > 150
C=C(C)c1c(Cl)ccc2c(=O)c3ccc(C)cc3n(CC(=O)O)c12 [Compound 47] | < 20 µM | D (“D” >7° C.) | > 50 | < 50
Cc1ccc2c(=O)c3c(O)cc(Cl)c(N(C)C)c3n(CC(=O)O)c2c1 [Compound 51] | 20 to 100 µM | D (“D” >7° C.) | > 50 | 100 to 150
CN(C)c1c(Cl)ccc2c(=O)c3ccc(C(C)(C)C#N)cc3n(CC(=O)O)c12 [Compound 52] | < 20 µM | D (“D” >7° C.) | > 50 | < 50
COc1c(Cl)ccc2c(=O)c3ccc(C4CCN(C)CC4)cc3n(CC(=O)O)c12 [Compound 53] | 100 to 300 µM | C (“C” = 2-7° C.) | 5 to 25 | > 150
COc1c(Cl)ccc2c(=O)c3ccc(C4=CCN(C)CC4)cc3n(CC(=O)O)c12 [Compound 54] | > 300 µM | C (“C” = 2-7° C.) | 5 to 25 | > 150
Cc1ccc2c(=O)c3ccc(Cl)c(N(C)C)c3n(CC(=O)NS(C)(=O)=O)c2c1 [Compound 55] | 20 to 100 µM | D (“D” >7° C.) | > 50 | < 50
CN(C)c1c(Cl)ccc2c(=O)c3ccc(-c4ccco4)cc3n(CC(=O)NS(C)(=O)=O)c12 [Compound 56] | < 20 µM | D (“D” >7° C.) |  | > 150
CC(C)c1ccc2c(=O)c3ccc(Cl)c(N(C)C)c3n(CC(=O)O)c2c1 [Compound 58] | < 20 µM | D (“D” >7° C.) | > 50 | < 50

SMILES | IC50 [1] | WT_DSF_hSWAT Tm Shift (° C.) (hSTING-R232 (aa140-379)) | Emax [2] [%] | IC50 [2] [µM]
COCCOc1cccc2c(=O)c3ccc(Cl)c(OC)c3n(CC(=O)O)c12 [Compound 60] | > 300 µM | B (“B” = 0-2° C.) | 5 to 25 | > 150
COc1c(Cl)ccc2c(=O)c3cccc(OCCO)c3n(CC(=O)O)c12 [Compound 61] | > 300 µM | B (“B” = 0-2° C.) | 5 to 25 | > 150
O=C(O)Cn1c2ccccc2c(=O)c2ccc(Cl)c(O)c21 [Compound 63] | 20 to 100 µM | B (“B” = 0-2° C.) | < 5 | > 150
C=C(C)c1ccc2c(=O)c3ccc(Cl)c(OC)c3n(CC(=O)O)c2c1 [Compound 65] | 20 to 100 µM | D (“D” >7° C.) | > 50 | < 50
COc1c(Cl)ccc2c(=O)c3ccc(F)cc3n(CC(=O)O)c12 [Compound 67] | > 300 µM | C (“C” = 2-7° C.) |  | > 150
CCNc1ccc2c(=O)c3ccc(Cl)c(OC)c3n(CC(=O)O)c2c1 [Compound 68] | 20 to 100 µM | C (“C” = 2-7° C.) | > 50 | 50 to 100
CN(C)c1c(Cl)ccc2c(=O)c3ccc(-c4cc[nH]c(=O)c4)cc3n(CC(=O)O)c12 [Compound 69] | < 20 µM | D (“D” >7° C.) | > 50 | < 50
CN(C)c1c(Cl)ccc2c(=O)c3ccc(-c4cnccn4)cc3n(CC(=O)O)c12 [Compound 70] | < 20 µM | C (“C” = 2-7° C.) | > 50 | < 50
CN(C)c1c(Cl)ccc2c(=O)c3ccc(-c4ccnnc4)cc3n(CC(=O)O)c12 [Compound 71] | 20 to 100 µM | D (“D” >7° C.) | > 50 | < 50
CN(C)c1c(Cl)ccc2c(=O)c3cc(Cl)c(Nc4c(F)cccc4F)cc3n(CC(=O)O)c12 [Compound 75] | < 20 µM | D (“D” >7° C.) | > 50 | < 50
CN(C)c1c(Cl)ccc2c1N(CC(=O)O)c1cc(Nc3ccccc3F)ccc1N2C [Compound 78] | < 20 µM | D (“D” >7° C.) | > 50 | < 50
CN(C)c1c(Cl)ccc2c(=O)c3ccc(Nc4cccnc4)cc3n(CC(=O)O)c12 [Compound 80] | < 20 µM | D (“D” >7° C.) | > 50 | < 50
CN(C)c1c(Cl)ccc2c(=O)c3ccc(Nc4ccncc4)cc3n(CC(=O)O)c12 [Compound 81] | < 20 µM | D (“D” >7° C.) | > 50 | < 50
CN(C)c1c(Cl)ccc2c(=O)c3ccc(C4(C#N)CC4)cc3n(CC(=O)O)c12 [Compound 84] | 20 to 100 µM | D (“D” >7° C.) | > 50 | < 50
CC(C)Nc1cc2c(cc1Cl)c(=O)c1ccc(Cl)c(N(C)C)c1n2CC(=O)O [Compound 86] | < 20 µM | D (“D” >7° C.) | > 50 | < 50
CN(C)c1c(Cl)ccc2c(=O)c3cc(Cl)c(C(C)(C)C#N)cc3n(CC(=O)O)c12 [Compound 87] | < 20 µM | D (“D” >7° C.) | > 50 | < 50
CN(C)c1c(Cl)ccc2c(=O)c3cc(Cl)c(C(C)(C)C)cc3n(CC(=O)O)c12 [Compound 88] | < 20 µM | D (“D” >7° C.) | > 50 | < 50
C=Cc1cc2c(cc1Cl)c(=O)c1ccc(Cl)c(N(C)C)c1n2CC(=O)O [Compound 89] | < 20 µM | D (“D” >7° C.) | > 50 | < 50
